Results on nine compounds are retold here after patent US9844519B1, “Method of treating TDP-43 proteinopathies using hexachlorophene” (University of South Florida, priority 2014, dated 2017).

Like-named read-outs stand apart in the source and are kept apart here. Peptide text beside a SMILES is read from it. * marks the point of attachment. Cbz = O=C(OCc1ccccc1)*

Series [1] has as its target T1, TDP-43 (Mus musculus, UniProt Q921F2).
T1 construct: N9 cells expressing endogenous TDP-43 were treated with various concentrations of B10; endogenous in cells; host or cells: N9 mouse microglial cells
Description: InCell Western (ICW) drug screen for TDP-43 levels in N9 cells. It is filed as cell-based. The settings on record: for % TDP43 level: N9 cells treated 24 hours, DMSO vehicle control = 100. As for the experimental part:
To optimize the ICW technique for screening TDP-43 targeting drugs, N9 cells were seeded in a 96-well plate and processed for ICW by using various dilution of TDP-43 antibody.
For drug screening, N9 cells were treated with a panel of candidate drug molecules for 24 hours and the effect on TDP-43 levels was analyzed using the InCell Western assay.
To optimize TDP-43 targeting ICW, N9 cells were seeded in a 96-well plate and probed with different dilutions of TDP-43 antibody as previously described (Jinwal and Dickey, 2011). For the identification of candidate drug molecules, N9 cells were treated with an array of drugs for 24 hours and processed for ICW (Jinwal and Dickey, 2011). In brief, cells were fixed, washed with PBS and incubated in blocking buffer. Cells were then incubated in primary antibody to TDP-43 (1:1000) and GAPDH (1:3000) for overnight. After washing with 0.2% Tween-20 PBS, cells were incubated with fluorescently tagged secondary antibodies for 1 hour and 30 minutes. Fluorescence intensity was then recorded and quantified using the Odyssey Infrared Imaging System (LI-COR). ICW experiments were performed in duplicate.

Series [2] has as its system rats. The settings on record: pre-treatment prior to administration of B10; cited from earlier work.
The subject of series [3] is ubiquitinated proteins. The series is described as follows: Western blot of ubiquitinated proteins in HEK293 cell samples. The settings on record: HEK293 samples from FIG. 4A, 24 hours, ubiquitin antibody. The series is classed as cell-based. As for the experimental part: (§1) HEK293 cells were treated with 3 and 10 μM B10 for 24 hours. An equivalent volume of DMSO was used for control treatments. […] Briefly, cells were lysed in Mammalian-Protein Extraction Reagent (M-PER; Pierce, Rockford, Ill.) containing 1× protease inhibitor mixture (Calbiochem, Billerica, Mass.), 1 mM phenylmethylsulfonyl fluoride (PMSF) and 1× phosphatase inhibitor I and II cocktails (Sigma). Protein concentration was determined using the Coomassie (Bradford) Protein Assay Kit (Pierce). Samples were analyzed using TDP-43, FUS, and GAPDH antibodies by Western blotting. Drug treatment experiments were performed in triplicate. For ubiquitinated protein analysis upon MG132 treatment, ubiquitin antibody (Santa Cruz Biotechnology) was used. Statistical analysis was performed using Microsoft Excel.
Background: Immunoblotting shows a protein as a band on a membrane.

In series [4] the target is T2, endogenous TDP-43 (Mus musculus, UniProt Q921F2).
T2 construct: N9 cells expressing endogenous TDP-43 were treated with various concentrations of B10; endogenous in cells; host or cells: N9 mouse microglial cells
The series is described as follows: Western blotting of endogenous TDP-43 in N9 cells, dose response. The settings on record: 3 μM, 24 hours, Western blot. The series is classed as cell-based. The protocol:
N9 cells were treated with different concentration of B10 for 24 hours and levels of endogenous TDP-43 were determined by Western blotting.
For dose response experiments, N9 cells were treated with different concentrations of B10 for 24 hours. […] An equivalent volume of DMSO was used for control treatments for both sets of experiments. […] Briefly, cells were lysed in Mammalian-Protein Extraction Reagent (M-PER; Pierce, Rockford, Ill.) containing 1× protease inhibitor mixture (Calbiochem, Billerica, Mass.), 1 mM phenylmethylsulfonyl fluoride (PMSF) and 1× phosphatase inhibitor I and II cocktails (Sigma). Protein concentration was determined using the Coomassie (Bradford) Protein Assay Kit (Pierce). Samples were analyzed for Myc and GAPDH by Western blotting. […] Drug treatment experiments were repeated at least two times.

Series [5] has as its system Myc-tagged WT TDP-43, C25 mutant, M337V and Q331K. The series is described as follows: Western blotting of Myc-tagged WT and mutant TDP-43 transfected in HEK293 cells. The settings on record: HEK293 cells transfected with Myc-tagged WT, 3 μM, 24 hours. The series is classed as cell-based.
Series [6] relates to HEK293 cells. The series is classed as cell-based. The settings on record: human, 24 h. As for the experimental part: (§2) Whether B10 treatment causes cytotoxicity was next tested. The inventors performed the LDH assay with N9 and HEK293 cells. […] B10 causes ˜3% and ˜13% cytotoxicity at 3 and 10 μM in the HEK293 cells, respectively (FIG. 5B).
(§3) The LDH assay was performed using the CytoTox 96 Non-Radioactive Cytotoxicity Assay from Promega as per manufacturer's instructions. Briefly, N9 and HEK cells were treated with different concentrations of hexachlorophene for 24 hours. Cells treated with a lethal dose of 150 μM hexachlorophene were used as the maximal LDH release control. Culture supernatant was collected and centrifuged at 2000 rpm to pellet debris. 50 μl of supernatant from each sample was transferred to a flat-bottom 96 well plate. The Substrate Mix provided in the kit was reconstituted with Assay Buffer. 50 μl of the reconstituted Substrate Mix was added to the culture supernatant. The plate was incubated at room temperature, protected from light, for 30 minutes. 50 μl of Stop Solution was added to each well at the end of the incubation period. Absorbance was read at 490 nm. The experiment was performed in triplicate for each cell line. Statistical analysis was performed using Microsoft Excel.

The subject of series [7] is N9 cells. The series is classed as cell-based. The conditions noted are these: mouse, 24 h. As for the experimental part:
as §2, §3

Series [8] addresses T3, endogenous TDP-43 (Homo sapiens, UniProt Q13148).
T3 construct: HEK293 cells expressing endogenous TDP-43 and FUS; endogenous in cells; host or cells: HEK293
Description: Western blotting of endogenous TDP-43 in HEK293 cells. The conditions noted are these: endogenous TDP-43, 3 μM, 24 hours, Western blot. It is filed as cell-based. The protocol:
as §1

Series [9] relates to FUS (Fused in Sarcoma). Description: Western blotting of endogenous FUS in HEK293 cells. It is filed as cell-based. As for the experimental part: as §1
Series [10] addresses T4, C25 mutant of TDP-43 (Homo sapiens, UniProt Q13148).
T4 construct: the C25 cleaved fragment that localizes to the cytosol; expressed in transfected cells; host or cells: HEK293
Description: Immunofluorescence of cytoplasmic C25 mutant TDP-43 in HEK293 cells. The series is classed as cell-based. The settings on record: 3 μM, 24 hours.
Description: 24 hours after transfection, the medium was replaced and cells were treated with either DMSO or 3 μM B10 for 24 hours. […] Following three washes in PBS, cells were incubated in blocking buffer (1% BSA, 0.1% Tween-20 in PBS) for one hour. A mouse monoclonal antibody to the Myc tag at a dilution of 1:400 was applied for 1 hour. After three washes in PBS, cells were incubated with an Alexa488 tagged goat anti-mouse IgG secondary antibody at 1:800 for 1 hour. […] Coverslips were mounted on slides using Fluoromount G. Imaging was performed with a Zeiss AxioVision imager.

For series [11], the system named is C25-TDP-43 transgenic C. elegans. Description: Liquid thrashing motility assay in C25-TDP-43 transgenic C. elegans. It is filed as in vivo. The conditions noted are these: C25 worms on NGM plates containing 5 μM or 10 μM B10. The protocol:
(§4) For in vivo studies the inventors used a C. elegans model expressing the C25 fragment to analyze changes in behavior and pathological TDP-43 upon B10 treatment.
(§5) The Solid Method of drug dosing was used in which age-synchronized C. elegans eggs were plated on Nematode Growth Media (NGM) plates containing DMSO vehicle or 5 μM B10 or 10 μM B10.
(§6) A behavioral assay that measures liquid thrashing ability was used to analyze the effect of B10 treatment on motility in age synchronized C25 animals. For microscopic analysis adult worms were fixed on slide and imaged using fluorescence microscopy.

For series [12], the target named is T5, C25-TDP-43 (Homo sapiens, UniProt Q13148).
T5 construct: a C. elegans model expressing the C25 fragment; expressed in transfected cells; host or cells: transgenic C. elegans (neurons)
The series is described as follows: Fluorescence microscopy of C25-TDP-43 aggregates in head neurons of transgenic C. elegans. The series is classed as in vivo. The settings on record: C25 worms. As for the experimental part:
as §4, §5, §6

For series [13] the following is noted: dose of about 10 mg/kg, transgenic TDP43 mouse model; cited from earlier work.
The test system of series [14] is Wnt-β-catenin signaling pathway. The conditions noted are these: B lymphoma cells; cited from earlier work.
Series [15] concerns the target T6, amyloid beta (Aβ) (Homo sapiens, UniProt P05067).
T6 construct: the amyloid protein (Aβ) which is a proteolytic product of a precursor protein of much larger size
The conditions noted are these: cited from earlier work.

Series [16] deals with primary neuronal cultures. The settings on record: cited from earlier work.

T1 sequence (Q921F2 whole entry): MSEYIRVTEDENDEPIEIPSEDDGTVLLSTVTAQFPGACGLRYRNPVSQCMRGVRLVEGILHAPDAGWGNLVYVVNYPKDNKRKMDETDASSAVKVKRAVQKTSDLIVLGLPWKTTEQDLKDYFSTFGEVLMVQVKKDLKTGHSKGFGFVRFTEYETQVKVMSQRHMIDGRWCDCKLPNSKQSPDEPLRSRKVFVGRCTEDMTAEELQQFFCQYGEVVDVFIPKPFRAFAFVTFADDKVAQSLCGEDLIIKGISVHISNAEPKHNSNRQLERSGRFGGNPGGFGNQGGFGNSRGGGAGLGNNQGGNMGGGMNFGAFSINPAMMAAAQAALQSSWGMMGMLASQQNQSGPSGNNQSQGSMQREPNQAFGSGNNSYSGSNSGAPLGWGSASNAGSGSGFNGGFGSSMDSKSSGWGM
T6 sequence (P05067 672-713 limits assumed): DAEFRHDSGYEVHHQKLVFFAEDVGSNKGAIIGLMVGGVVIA
T5 sequence (Q13148 219-414 limits assumed): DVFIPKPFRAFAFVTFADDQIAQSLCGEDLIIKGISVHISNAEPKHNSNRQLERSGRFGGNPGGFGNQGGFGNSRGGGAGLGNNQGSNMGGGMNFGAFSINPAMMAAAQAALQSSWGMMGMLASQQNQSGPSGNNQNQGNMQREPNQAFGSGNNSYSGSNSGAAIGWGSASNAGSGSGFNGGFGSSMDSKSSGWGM
T4 sequence (Q13148 219-414 limits assumed, change not shown): as the sequence (Q13148 219-414 limits assumed) above
T3 sequence (Q13148 whole entry): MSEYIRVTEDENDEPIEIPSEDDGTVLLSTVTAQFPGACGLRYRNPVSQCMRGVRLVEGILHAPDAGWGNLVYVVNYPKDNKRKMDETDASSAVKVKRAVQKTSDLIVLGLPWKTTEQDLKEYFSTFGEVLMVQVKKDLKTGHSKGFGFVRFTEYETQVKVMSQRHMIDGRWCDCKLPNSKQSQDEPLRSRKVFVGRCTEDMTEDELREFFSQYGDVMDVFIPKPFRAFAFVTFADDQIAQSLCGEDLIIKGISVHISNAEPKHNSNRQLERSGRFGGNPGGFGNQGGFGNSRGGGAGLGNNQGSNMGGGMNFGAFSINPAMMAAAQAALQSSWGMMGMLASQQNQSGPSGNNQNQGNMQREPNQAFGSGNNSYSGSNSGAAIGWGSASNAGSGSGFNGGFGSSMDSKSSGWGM
T2 sequence (Q921F2 whole entry): as the sequence (Q921F2 whole entry) above

Take `NS(=O)(=O)c1cc2c(cc1C(F)(F)F)NCNS2(=O)=O` [B8, Hydroflumethiazide]: the “% TDP43 level” value in [1] was determined as 89%.
With `CCCC(C(=O)OCCN(CC)CC)(c1ccccc1)c1ccccc1.Cl` [SKF-525A, 2-diethylaminoethyl-2,2-diphenylvalerate-Hcl], in series [2], the “protection from toxicity induced by B10” value is listed as “lessened toxicity”.
In the case of `CO[C@H]1/C=C/O[C@@]2(C)Oc3c(C)c(O)c4c(O)c(c(/C=N/N5CCN(C)CC5)c(O)c4c3C2=O)NC(=O)/C(C)=C\C=C\[C@H](C)[C@H](O)[C@@H](C)[C@@H](O)[C@@H](C)[C@H](OC(C)=O)[C@@H]1C` [B6, Rifampicin], the “% TDP43 level” value in series [1] came out at 103%.
In the case of `CCOc1ccc2c(c1)C(C)=CC(C)(C)N2` [ethoxyquin], in series [2], the “protection from toxicity induced by B10” value is “protects rats from toxicity induced by B10”.
Take `C[N+](C)(C)C[C@H](O)CC(=O)[O-]` [L-carnitine]: the “protection from toxicity induced by B10” value in [2] is “protected rats from the toxicity of B10”.
In the case of `CC(C)C[C@@H](C=O)NC(=O)[C@H](CC(C)C)NC(=O)[C@H](CC(C)C)NC(=O)OCc1ccccc1` [MG132] (Cbz-Leu-Leu-Leu-aldehyde), in [3], the “levels of ubiquitinated proteins” value is “increase in ubiquitinated proteins”.
As for `OCCN1CCN(CCCN2c3ccccc3Sc3ccc(Cl)cc32)CC1` [B5, Perphenazine], the “% TDP43 level” value in series [1] was 85%.
As for `Oc1c(Cl)cc(Cl)c(Cl)c1Cc1c(O)c(Cl)cc(Cl)c1Cl` [B10, Hexachlorophene], the “% TDP43 level” value in [1] came out at 63%. Further, in series [1] (N9 cells, 24 hours), the “decrease in levels of TDP-43 compared to the control” value was about 40%. Also, the “reduction of endogenous TDP-43 levels” value in series [4] is “approximately 50%”. The “decrease in levels of TDP-43 and its mutants” value in series [5] was “approximately 50%”. Also, the “cytotoxicity (LDH release)” value was about 3% in series [6] (3 μM), about 13% in series [6] (10 μM), about 6% in series [7] (3 μM) and about 23% in series [7] (10 μM). Further, in series [8], the “reduction of TDP-43 levels” value is listed as about 50%. Further, in series [9], the “effect on levels of FUS” value was “increases levels of FUS”. Also, the “increase of FUS levels” value in series [9] (3 μM, 24 hours, Western blot) was about 300%. The “amount of cytoplasmic C25 mutant TDP-43” value in [10] is reported as “decreases the amount of cytoplasmic C25 mutant TDP-43”. Also, the “levels of ubiquitinated proteins” value in [3] is “slight increase in ubiquitinated proteins”. In addition, the “motility (liquid thrashing)” value in [11] is listed as “improved motility of C25 worms”. In addition, in [12], the “accumulation of TDP-43 in neurons in the head region” value is given as “decreased the accumulation of TDP-43 in the neurons in the head region of C25 worms”. For the same compound, in series [13], the brain permeability is given as 50%. For the same compound, the “effect on Wnt-β-catenin signaling pathway” value in [14] was “inhibit the Wnt-β-catenin signaling pathway in B lymphoma cells”. For the same compound, in series [15], the “effect on Aβ fibril formation” value is “inhibit amyloid beta (Aβ) fibril formation”. In addition, the “protection from Aβ-induced toxicity” value in series [16] is on record as “protect primary neuronal cultures from Aβ-induced toxicity”.
For the compound `Nc1ccc(S(=O)(=O)c2ccc(N)cc2)cc1` [B7, Dapsone], the “% TDP43 level” value in [1] came out at 100%.
